Test results published in patent US9249129B2, “Morpholino substituted urea derivatives as mTOR inhibitors” (CELLZOME LIMITED, priority 2010, dated 2016).
Read-outs that look alike come from different tables or passages of the source.

Tests used:
PI3Kα = target: T1, PI3Kα (Homo sapiens, UniProt P42336); experiment: kinobeads assay, PI3K alpha (dot blot detection); format: binding; settings: Table 4, read-out: Inhibition values (IC50) PI3Ka
T1 construct: endogenous in cells; host or cells: Jurkat cells (ATCC TIB-152) lysate, the only lysate described
T1 sequence (P42336 whole entry): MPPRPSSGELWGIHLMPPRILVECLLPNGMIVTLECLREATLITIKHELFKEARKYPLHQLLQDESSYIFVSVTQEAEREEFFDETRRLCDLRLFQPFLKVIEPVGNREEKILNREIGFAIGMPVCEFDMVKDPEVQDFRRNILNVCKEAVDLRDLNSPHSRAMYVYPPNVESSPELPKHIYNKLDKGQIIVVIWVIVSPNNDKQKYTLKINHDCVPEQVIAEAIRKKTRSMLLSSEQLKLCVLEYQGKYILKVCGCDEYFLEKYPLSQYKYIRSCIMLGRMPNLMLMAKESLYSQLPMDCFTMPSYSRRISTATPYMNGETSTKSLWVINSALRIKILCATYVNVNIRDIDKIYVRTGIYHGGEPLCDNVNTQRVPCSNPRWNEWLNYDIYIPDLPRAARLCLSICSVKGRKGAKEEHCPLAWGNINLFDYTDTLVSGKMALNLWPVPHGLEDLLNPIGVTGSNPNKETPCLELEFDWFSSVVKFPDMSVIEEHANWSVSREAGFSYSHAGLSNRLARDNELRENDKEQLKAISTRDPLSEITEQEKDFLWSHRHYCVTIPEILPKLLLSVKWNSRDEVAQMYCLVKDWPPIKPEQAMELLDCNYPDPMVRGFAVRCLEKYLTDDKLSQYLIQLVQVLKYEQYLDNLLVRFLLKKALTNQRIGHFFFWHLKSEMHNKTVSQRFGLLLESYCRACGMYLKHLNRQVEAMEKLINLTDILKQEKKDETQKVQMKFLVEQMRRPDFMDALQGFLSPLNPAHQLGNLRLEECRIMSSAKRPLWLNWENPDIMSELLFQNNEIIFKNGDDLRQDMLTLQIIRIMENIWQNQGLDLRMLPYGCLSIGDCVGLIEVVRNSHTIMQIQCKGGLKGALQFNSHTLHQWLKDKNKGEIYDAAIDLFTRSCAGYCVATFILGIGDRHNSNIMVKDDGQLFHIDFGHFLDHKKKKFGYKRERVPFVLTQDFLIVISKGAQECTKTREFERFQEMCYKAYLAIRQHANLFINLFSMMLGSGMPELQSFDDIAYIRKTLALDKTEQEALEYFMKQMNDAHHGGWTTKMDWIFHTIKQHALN
T1 sequence (P27986 whole entry partner): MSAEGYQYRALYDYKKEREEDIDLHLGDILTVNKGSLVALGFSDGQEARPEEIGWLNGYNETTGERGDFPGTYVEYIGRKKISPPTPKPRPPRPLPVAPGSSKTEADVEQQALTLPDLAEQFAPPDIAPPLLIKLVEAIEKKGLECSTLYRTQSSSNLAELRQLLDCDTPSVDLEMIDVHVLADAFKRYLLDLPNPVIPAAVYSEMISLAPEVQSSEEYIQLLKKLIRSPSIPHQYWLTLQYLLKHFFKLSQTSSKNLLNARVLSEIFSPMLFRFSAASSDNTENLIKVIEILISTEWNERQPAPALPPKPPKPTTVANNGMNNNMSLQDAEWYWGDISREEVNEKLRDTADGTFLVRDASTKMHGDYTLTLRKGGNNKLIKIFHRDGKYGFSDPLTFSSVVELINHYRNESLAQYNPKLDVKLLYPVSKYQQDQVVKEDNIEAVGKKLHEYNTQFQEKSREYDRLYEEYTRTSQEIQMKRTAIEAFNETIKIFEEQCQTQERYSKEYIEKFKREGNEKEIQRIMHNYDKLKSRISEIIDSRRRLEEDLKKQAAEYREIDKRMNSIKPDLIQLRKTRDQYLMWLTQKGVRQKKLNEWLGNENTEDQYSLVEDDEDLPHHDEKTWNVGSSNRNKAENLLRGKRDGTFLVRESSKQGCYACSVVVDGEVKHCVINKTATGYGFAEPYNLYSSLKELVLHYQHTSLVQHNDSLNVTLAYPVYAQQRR

PI3K delta (PI3Kd) = target: T2, PI3K delta (PI3Kd) (Homo sapiens, UniProt O00329); experiment: kinobeads assay, PI3K delta (dot blot detection); format: binding
T2 construct: endogenous in cells; host or cells: Jurkat cells (ATCC TIB-152, clone E6-1), lysate
T2 sequence (O00329 whole entry): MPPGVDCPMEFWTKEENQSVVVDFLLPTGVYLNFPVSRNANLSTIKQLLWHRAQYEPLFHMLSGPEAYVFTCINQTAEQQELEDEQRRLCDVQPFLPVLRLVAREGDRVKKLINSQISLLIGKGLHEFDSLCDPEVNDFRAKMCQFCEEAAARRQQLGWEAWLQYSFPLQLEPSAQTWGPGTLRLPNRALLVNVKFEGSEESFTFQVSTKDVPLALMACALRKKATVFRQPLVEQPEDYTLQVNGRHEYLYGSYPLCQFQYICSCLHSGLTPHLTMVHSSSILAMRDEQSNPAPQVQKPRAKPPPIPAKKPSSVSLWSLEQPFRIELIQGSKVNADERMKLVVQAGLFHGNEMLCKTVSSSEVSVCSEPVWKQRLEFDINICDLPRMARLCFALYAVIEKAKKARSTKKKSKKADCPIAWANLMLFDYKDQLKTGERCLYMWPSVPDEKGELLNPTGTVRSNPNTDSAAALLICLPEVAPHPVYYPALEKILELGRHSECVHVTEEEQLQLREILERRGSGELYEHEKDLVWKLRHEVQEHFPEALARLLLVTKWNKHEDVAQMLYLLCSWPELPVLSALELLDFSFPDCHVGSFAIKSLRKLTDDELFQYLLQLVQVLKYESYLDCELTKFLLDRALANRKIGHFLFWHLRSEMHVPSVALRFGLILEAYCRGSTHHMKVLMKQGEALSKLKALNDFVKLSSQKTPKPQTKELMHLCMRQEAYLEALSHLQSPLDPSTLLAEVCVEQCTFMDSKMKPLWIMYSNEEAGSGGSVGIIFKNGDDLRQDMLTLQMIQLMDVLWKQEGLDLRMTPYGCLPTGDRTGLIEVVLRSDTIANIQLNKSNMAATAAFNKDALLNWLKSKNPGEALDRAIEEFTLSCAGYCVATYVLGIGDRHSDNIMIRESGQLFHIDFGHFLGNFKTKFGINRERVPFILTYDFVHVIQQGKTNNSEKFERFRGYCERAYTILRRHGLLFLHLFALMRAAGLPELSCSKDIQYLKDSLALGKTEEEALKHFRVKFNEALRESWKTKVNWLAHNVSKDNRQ
T2 sequence (P27986 whole entry partner): as the sequence (P27986 whole entry partner) above
Summary of the method: (§1)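 Jurkat cell lysate (5 mg/ml protein) was incubated with test compounds and kinobeads (immobilized phenylthiazole and phenylmorpholin-chromen ligands) for 2 h in the cold with shaking. Bead-bound kinase was SDS-eluted and quantified by antibody dot blot with infrared detection. IC50 values came from dose-response curves.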

PI3Kβ = target: T3, PI3Kβ (Homo sapiens, UniProt P42338); experiment: kinobeads assay, PI3K beta (dot blot detection); format: binding; settings: Table 4, read-out: Inhibition values (IC50) PI3Kb
T3 construct: endogenous in cells; host or cells: Jurkat cells (ATCC TIB-152) lysate, the only lysate described
T3 sequence (P42338 whole entry): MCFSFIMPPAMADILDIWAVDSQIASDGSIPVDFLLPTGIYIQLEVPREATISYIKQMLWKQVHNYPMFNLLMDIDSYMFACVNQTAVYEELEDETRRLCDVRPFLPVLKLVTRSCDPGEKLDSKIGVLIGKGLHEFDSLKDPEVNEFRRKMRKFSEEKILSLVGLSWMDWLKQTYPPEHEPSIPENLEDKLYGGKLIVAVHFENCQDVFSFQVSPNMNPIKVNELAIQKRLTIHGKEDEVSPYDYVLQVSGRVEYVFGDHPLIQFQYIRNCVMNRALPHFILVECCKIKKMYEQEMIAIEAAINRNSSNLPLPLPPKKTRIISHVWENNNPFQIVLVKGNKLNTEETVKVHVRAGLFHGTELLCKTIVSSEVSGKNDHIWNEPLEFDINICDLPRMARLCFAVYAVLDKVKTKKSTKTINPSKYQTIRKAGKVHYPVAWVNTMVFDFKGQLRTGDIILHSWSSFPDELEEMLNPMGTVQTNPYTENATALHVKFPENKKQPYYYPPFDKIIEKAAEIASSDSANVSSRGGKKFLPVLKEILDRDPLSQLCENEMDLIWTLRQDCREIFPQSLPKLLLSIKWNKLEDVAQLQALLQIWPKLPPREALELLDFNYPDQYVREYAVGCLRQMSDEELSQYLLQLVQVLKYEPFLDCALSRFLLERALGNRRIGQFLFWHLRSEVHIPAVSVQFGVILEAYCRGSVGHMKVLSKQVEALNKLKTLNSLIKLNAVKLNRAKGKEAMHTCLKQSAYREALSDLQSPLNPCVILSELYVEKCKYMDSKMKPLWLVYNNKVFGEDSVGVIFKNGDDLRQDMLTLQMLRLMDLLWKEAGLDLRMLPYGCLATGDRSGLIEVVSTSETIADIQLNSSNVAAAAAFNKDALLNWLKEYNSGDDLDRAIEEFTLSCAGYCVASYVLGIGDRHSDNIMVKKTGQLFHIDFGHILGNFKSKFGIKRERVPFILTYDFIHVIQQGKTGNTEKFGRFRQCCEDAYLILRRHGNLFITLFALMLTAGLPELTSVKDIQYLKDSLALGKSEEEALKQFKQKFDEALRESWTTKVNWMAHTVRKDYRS
T3 sequence (P27986 whole entry partner): as the sequence (P27986 whole entry partner) above

PI3Kγ = target: T4, PI3Kγ (Homo sapiens, UniProt P48736); experiment: kinobeads assay, PI3K gamma (dot blot detection); format: binding; settings: Table 4, read-out: Inhibition values (IC50) PI3Kg
T4 construct: endogenous in cells; host or cells: Jurkat cells (ATCC TIB-152) lysate, the only lysate described
T4 sequence (P48736 whole entry): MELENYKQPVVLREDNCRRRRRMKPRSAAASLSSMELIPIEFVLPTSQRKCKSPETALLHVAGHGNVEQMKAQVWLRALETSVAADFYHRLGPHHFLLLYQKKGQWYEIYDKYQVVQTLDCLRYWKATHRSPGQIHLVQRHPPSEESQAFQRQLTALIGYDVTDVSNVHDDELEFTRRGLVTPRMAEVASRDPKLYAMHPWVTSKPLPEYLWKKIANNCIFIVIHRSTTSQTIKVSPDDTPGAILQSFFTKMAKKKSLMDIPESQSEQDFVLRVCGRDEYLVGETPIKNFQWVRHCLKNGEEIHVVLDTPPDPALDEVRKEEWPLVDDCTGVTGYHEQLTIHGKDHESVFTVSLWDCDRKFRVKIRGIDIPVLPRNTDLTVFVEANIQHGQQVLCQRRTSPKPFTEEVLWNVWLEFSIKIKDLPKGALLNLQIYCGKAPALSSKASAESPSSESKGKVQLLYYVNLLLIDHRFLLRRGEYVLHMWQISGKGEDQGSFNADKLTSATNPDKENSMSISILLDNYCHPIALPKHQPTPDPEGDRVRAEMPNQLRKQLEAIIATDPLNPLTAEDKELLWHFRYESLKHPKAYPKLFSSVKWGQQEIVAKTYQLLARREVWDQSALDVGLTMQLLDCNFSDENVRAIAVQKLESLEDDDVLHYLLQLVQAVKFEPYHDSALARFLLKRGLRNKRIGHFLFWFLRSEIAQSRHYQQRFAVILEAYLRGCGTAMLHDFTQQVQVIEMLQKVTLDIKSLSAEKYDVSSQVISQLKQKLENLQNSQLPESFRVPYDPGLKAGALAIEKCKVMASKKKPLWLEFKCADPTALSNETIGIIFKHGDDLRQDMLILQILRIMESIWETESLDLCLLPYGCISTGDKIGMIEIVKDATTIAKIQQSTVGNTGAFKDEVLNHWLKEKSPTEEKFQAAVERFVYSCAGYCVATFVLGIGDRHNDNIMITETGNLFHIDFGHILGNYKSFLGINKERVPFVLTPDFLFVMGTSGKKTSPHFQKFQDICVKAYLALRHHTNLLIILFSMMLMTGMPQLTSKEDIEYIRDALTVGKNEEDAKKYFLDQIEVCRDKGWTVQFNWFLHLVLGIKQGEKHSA

[1] = target: T5, DNA-dependent protein kinase (DNA-PK) (Homo sapiens, UniProt P78527); experiment: kinobeads assay, DNA-PK (dot blot detection); format: binding
T5 construct: endogenous in cells; host or cells: Jurkat cells (ATCC TIB-152, clone E6-1), lysate
Summary of the method: as §1

mTOR = target: T6, mTOR (Homo sapiens, UniProt P42345); experiment: mTOR kinobeads assay (dot blot detection); format: binding
T6 construct: endogenous in cells; host or cells: Jurkat cells (ATCC TIB-152, clone E6-1), lysate
Summary of the method: as §1

[2] = system: S6RP serine-240/244 phosphorylation in HEK293T/17 cells; experiment: In vitro phospho-S6 cellular assay (pS6RP S240/244); format: cell-based; settings: Homo sapiens, Table 6, 2 hours, S6RP Ser240/244, read-out: pS6 (phospho-S6 cell assay data, activity level)
Source text: In Vitro Phospho-S6 and Phospho-Akt Cellular Assay
Activation of mTOR signaling results in phosphorylation of several downstream targets. In cells, mTOR exists in two different protein complexes. The mTOR Complex-1 (mTORC1) phosphorylates and activates S6 Kinase 1 (S6K1) and S6 Kinase 2 (S6K2) (also known as p70S6K) which then phosphorylate S6 Ribosomal Protein (S6RP) (also known as RPS6). S6RP is phosphorylated on serine 235, serine 236, serine 240 and serine 244 by both pS6K1 and pS6K2. The mTOR Complex-2 (mTORC2) phosphorylates AKT on serine 473 which activates the AKT signaling pathway.
The assay measures a test compound's inhibition of S6RP serine-240/244 phosphorylation and inhibition of Akt serine-473 phosphorylation in human embryonic kidney derived HEK293T/17 cells (ATCC CRL-11268).
The HEK293T/17 cell line is maintained in DMEM media (Invitrogen catalogue number 41965-039) supplemented with 10% FCS at 37° C. in a 5% CO2 humidified incubator.
Cells are seeded in 96-well plates at 40,000 cells/well (pS6RP S240/244 assay) or 80,000 cells/well (pAkt 5473 assay) in 90 μl growth media (DMEM, 2% FCS). Plates are incubated for 1 hour in a humidified incubator to allow the cells to adhere. Cells are treated with 8 concentrations of test compounds or DMSO alone for controls (final DMSO concentration 0.1%) and incubated at 37° C. for 2 hours. Then 20 μl of 5× concentrated lysis buffer (750 mM NaCl, 100 mM Tris pH7.4, 5 mM EDTA, 5 mM EGTA, 5% Triton X-100) is added, plates are sealed and incubated for 15 minutes at 4° C. with gentle shaking. After cell lysis, 25 μl cell lysate is transferred to a MesoScale plate coated with an antibody to pS6RP Ser240/244 (MesoScale Discovery K150DGD-3) or an antibody to pAkt Ser 473 (MesoScale Discovery K151DGD-3). Plates have been blocked before by incubation with 150 μl MesoScale Discovery Blocking Solution-A for 1 hour at room temperature followed by washing with 150 μl 1× Tris wash buffer per well. After the transfer of the cell lysate to the MSD plate, the pS6RP (or pAkt) protein is captured on the coated antibody by incubation at room temperature for 1 hour with gentle shaking. After the capture step the plate is washed three times with 150 μl of 1× Tris wash buffer per well. Then 25 μl detection antibody conjugated with a Sulfo-Tag is added and incubated for 1 hour at room temperature with gentle shaking. Subsequently the antibody solution is removed and the plate is washed 3 times with 150 μl 1× Tris wash buffer per well and 150 μl Read buffer is added. The plates are analysed on a MSD 2400 Plate Reader (MesoScale Discovery). Data analysis is performed using nonlinear regression for a sigmoidal dose-response with a variable slope.

[3] = Table 2, Jurkat cell lysate, read-out: Inhibition values (IC50) PI3Kd
[4] = Table 4, read-out: Inhibition values (IC50) PI3Kd
[5] = Table 2, Jurkat cell lysate, read-out: Inhibition values (IC50) DNAPK
[6] = Table 4, read-out: Inhibition values (IC50) DNAPK
[7] = Table 2, Jurkat cell lysate, read-out: Inhibition values (IC50) mTor
[8] = Table 4, read-out: Inhibition values (IC50) mTOR

Structure (SMILES)	IC50 (PI3Kα) [µM]	IC50 (PI3K delta (PI3Kd); [3]) [µM]	IC50 (PI3K delta (PI3Kd); [4]) [µM]	IC50 (PI3Kβ) [µM]	IC50 (PI3Kγ) [µM]	IC50 [1, 5] [µM]	IC50 [1, 6] [µM]	IC50 (mTOR; [7]) [µM]	IC50 (mTOR; [8]) [µM]	IC50 [2] [µM]
CNC(=O)Nc1ccc(-c2ccnc(N3CCOCC3)n2)cc1 [Example 30, 1-methyl-3-(4-(2-morpholinopyrimidin-4-yl)phenyl)urea]	1 to 10	1 to 10	1 to 10	1 to 10	≥ 10	1 to 10	1 to 10	1 to 10	1 to 10	1 to 10
CCNC(=O)Nc1ccc(-c2cc(-c3cncc(S(C)(=O)=O)c3)nc(N3CCOC[C@@H]3C)n2)cc1 [Example 15, (S)-1-ethyl-3-(4-(2-(3-methylmorpholino)-6-(5-(methylsulfonyl)pyridin-3-yl)pyrimidin-4-yl)phenyl)urea]	≥ 10	≥ 10	≥ 10	≥ 10	≥ 10	≥ 10	≥ 10	1 to 10	1 to 10	0.1 to 1
C[C@H]1COCCN1c1cc(-c2cccnc2)nc(-c2ccc(NC(=O)NC3CC3)cc2)n1 [Example 3, (S)-1-cyclopropyl-3-(4-(4-(3-methylmorpholino)-6-(pyridin-3-yl)pyrimidin-2-yl)phenyl)urea]	≥ 10	≥ 10	≥ 10	≥ 10	≥ 10	≥ 10	≥ 10	0.1 to 1	0.1 to 1	< 0.1
C[C@H]1COCCN1c1ccnc(-c2ccc(NC(=O)NC3CC3)cc2)n1 [Example 35, (S)-1-cyclopropyl-3-(4-(4-(3-methylmorpholino)pyrimidin-2-yl)phenyl)urea]	≥ 10	≥ 10	≥ 10	≥ 10	≥ 10	≥ 10	≥ 10	0.1 to 1	0.1 to 1	0.1 to 1
O=C(Nc1ccc(-c2ccnc(N3CCOCC3)n2)cc1)NC1CC1 [Example 28, 1-cyclopropyl-3-(4-(2-morpholinopyrimidin-4-yl)phenyl)urea]	≥ 10	≥ 10	≥ 10	≥ 10	≥ 10	≥ 10	≥ 10	1 to 10	1 to 10	1 to 10
CCNC(=O)Nc1ccc(-c2nccc(N3CCOC[C@@H]3C)n2)cc1 [Example 37, (S)-1-ethyl-3-(4-(4-(3-methylmorpholino)pyrimidin-2-yl)phenyl)urea]	≥ 10	≥ 10	≥ 10	≥ 10	≥ 10	≥ 10	≥ 10	1 to 10	0.1 to 1	0.1 to 1
C[C@H]1COCCN1c1nc(-c2ccc(NC(=O)NC3CC3)cc2)cc(-c2cccnc2)n1 [Example 7, (S)-1-cyclopropyl-3-(4-(2-(3-methylmorpholino)-6-(pyridin-3-yl)pyrimidin-4-yl)phenyl)]	≥ 10	≥ 10	≥ 10	≥ 10	≥ 10	≥ 10	≥ 10	1 to 10	1 to 10	0.1 to 1

More lines, main results first:

IC50 (PI3Kα) [µM]	IC50 (PI3K delta (PI3Kd); [3]) [µM]	IC50 (PI3K delta (PI3Kd); [4]) [µM]	IC50 (PI3Kβ) [µM]	IC50 (PI3Kγ) [µM]	IC50 [1, 5] [µM]	IC50 [1, 6] [µM]	IC50 (mTOR; [7]) [µM]	IC50 (mTOR; [8]) [µM]	Structure (SMILES)	IC50 [2] [µM]
≥ 10	–	≥ 10	≥ 10	≥ 10	–	≥ 10	–	0.1 to 1	C[C@H]1COCCN1c1nc(-c2ccc(NC(=O)NC3COC3)cc2)cc(-c2cc(F)ccc2S(C)(=O)=O)n1 [Example 86, (S)-1-(4-(6-(5-fluoro-2-(methylsulfonyl)phenyl)-2-(3-methylmorpholino)pyrimidin-4-yl)phenyl)-3-(oxetan-3-yl)urea]	0.1 to 1
≥ 10	≥ 10	≥ 10	≥ 10	≥ 10	≥ 10	≥ 10	0.1 to 1	0.1 to 1	C[C@H]1COCCN1c1cc(-c2cncc(F)c2)nc(-c2ccc(NC(=O)NCCO)cc2F)n1 [Example 65, (S)-1-(3-fluoro-4-(4-(5-fluoropyridin-3-yl)-6-(3-methylmorpholino)pyrimidin-2-yl)phenyl)-3-(2-hydroxyethyl)urea]	0.1 to 1
≥ 10	–	≥ 10	≥ 10	≥ 10	–	≥ 10	–	< 0.1	C[C@H]1COCCN1c1cc(-c2ccccc2S(C)(=O)=O)nc(-c2ccc(NC(=O)NCCO)cc2)n1 [Example 80, (S)-1-(2-hydroxyethyl)-3-(4-(4-(3-methylmorpholino)-6-(2-(methylsulfonyl)phenyl)pyrimidin-2-yl)phenyl)urea]	< 0.1
≥ 10	≥ 10	≥ 10	≥ 10	≥ 10	≥ 10	≥ 10	1 to 10	1 to 10	C[C@H]1COCCN1c1nccc(-c2ccc(NC(=O)NC3CC3)cc2)n1 [Example 39, (S)-1-cyclopropyl-3-(4-(2-(3-methylmorpholino)pyrimidin-4-yl)phenyl)urea]	0.1 to 1
1 to 10	≥ 10	≥ 10	≥ 10	≥ 10	≥ 10	≥ 10	0.1 to 1	0.1 to 1	C[C@H]1COCCN1c1ccnc(-c2ccc(NC(=O)NCCO)cc2)n1 [Example 53, (S)-1-(2-hydroxyethyl)-3-(4-(4-(3-methylmorpholino)pyrimidin-2-yl)phenyl)urea]	0.1 to 1
≥ 10	≥ 10	≥ 10	≥ 10	≥ 10	≥ 10	≥ 10	0.1 to 1	0.1 to 1	C[C@H]1COCCN1c1ccnc(-c2ccc(NC(=O)NCCF)cc2)n1 [Example 55, (S)-1-(2-fluoroethyl)-3-(4-(4-(3-methylmorpholino)pyrimidin-2-yl)phenyl)urea]	0.1 to 1
≥ 10	≥ 10	≥ 10	≥ 10	≥ 10	≥ 10	≥ 10	1 to 10	1 to 10	C[C@H]1COCCN1c1nc(-c2ccc(NC(=O)NC(C)(C)CO)cc2)cc(-c2cc(F)ccc2S(C)(=O)=O)n1 [Example 69, (S)-1-(4-(6-(5-fluoro-2-(methylsulfonyl)phenyl)-2-(3-methylmorpholino)pyrimidin-4-yl)phenyl)-3-(1-hydroxy-2-methylpropan-2-yl)urea]	< 0.1
